± gives the expanded uncertainty stated by the source.
Conditions: Liquid; Ebulliometric method (Recirculating still)

Row | Normal boiling temperature [°C] | SMILES
1 | 152.40 ± 0.22 | CC(C)c1ccccc1 [isopropylbenzene]
2 | 136.20 ± 0.21 | CCc1ccccc1 [ethylbenzene]
3 | 169.30 ± 0.22 | Cc1ccc(C)c(C)c1 [1,2,4-trimethylbenzene]
4 | 240.0 ± 0.21 | O=CN1CCOCC1 [N-formylmorpholine]

Row | SMILES | Normal boiling temperature [°C]
5 | CCCCc1ccccc1 [butylbenzene] | 183.2 ± 0.22

Source: the NIST ThermoML archive (doi:10.1016/j.jct.2012.04.016)
